Laboratory results: publication PMC7367283, “A PIP2 substitute mediates voltage sensor-pore coupling in KCNQ activation” (Communications Biology, 2020)

Columns and labels:
KCNQ2/KCNQ3 channel = system: KCNQ2/KCNQ3 channel; set-up: method as in PMID 22303005; conditions: cited from earlier work
IKs (KCNQ1 + KCNE1) = IKs (KCNQ1 + KCNE1) (Homo sapiens, UniProt P51787); experiment: IKs co-expressed with CiVSP (PIP2 depletion), two-electrode voltage clamp in Xenopus oocytes; assay type: cell-based; conditions: 100 µM chromanol 293B, bath application after 10 µM CP1
Excerpt: We co-expressed KCNQ1 with the voltage-dependent lipid phosphatase CiVSP[44] in Xenopus oocytes and recorded KCNQ1 currents using two-electrode voltage clamp with consecutive depolarizing voltage pulses. […] To more directly test CP1 effects, we applied CP1 to the intracellular side of the inside-out membrane patch that expressed IKs channels.

Row | effect on CP1-rescued IKs currents (IKs (KCNQ1 + KCNE1)) | Compound | effect on channel activity (KCNQ2/KCNQ3 channel)
1 | – | O=P(O)(O)O[C@@H]1[C@@H](O)[C@H](O)[C@H](O)[C@H](O)[C@H]1OP(=O)(O)O [I(4,5)P2] | no effect on channel activity
2 | – | O=P(O)(O)O[C@@H]1[C@H](O)[C@H](O)[C@@H](OP(=O)(O)O)[C@H](OP(=O)(O)O)[C@H]1O [I(1,4,5)P3] | no effect on channel activity
3 | inhibited | CCS(=O)(=O)N(C)[C@H]1c2cc(C#N)ccc2OC(C)(C)[C@@H]1O (racemic) [Chromanol 293B, reference compound] | –
